{"source": "patent US10874622B2", "about": "“Dual assembly nanoparticles” (BOARD OF REGENTS, THE UNIVERSITY OF TEXAS SYSTEM, priority 2015, dated 2020)", "system": "HeyA8 cells", "test": "In vitro anoikis (poly-HEMA plates, Annexin V-FITC/PI)", "format": "cell-based, human", "conditions": "HeyA8 cells in suspension, 72 h", "experimental": "In vitro anoikis. Cells were transfected with control or ZNF304 siRNA and transferred to 6-well tissue culture plates that were coated with polyhydroxyethylmethacrylate, and cells were cultured in these plates for 72 h at 37° C. in a 5% CO2 atmosphere. Cells were washed with PBS and were stained with Annexin V-FITC and PI solution (50 μg/ml) containing RNase A (25 μg/ml). After incubating the pellets for 30 min at 37° C., cell viability was analyzed by flow cytometry.\nβ1 integrin confers a survival advantage to tumor cells (Vachon, 2011). […] Therefore, the anoikis rates were examined at 24, 48, and 72 h in detached HeyA8 cells in vitro using polyhydroxyethylmethacrylate (poly-HEMA)-coated tissue culture plates that promote anchorage-independent cell growth (Sood et al., 2010).", "data": [{"substance": "Control siRNA: non-silencing siRNA without homology to any known human mRNA, UUCUCCGAACGUGUCACGUUU (SEQ ID NO: 15) (listed as RNA, chemistry not given here)", "values": [{"measurement": "rate of anoikis", "result": 60, "unit": "%"}]}]}
